Where two headings read alike, the source gives them in different places.

The test deals with T1, hT1R2/hT1R3 sweet receptor expressed in an HEK293 cell line (Homo sapiens, UniProt Q7RTX0+Q8TE23).
T1 construct: expressed in transfected cells; host or cells: HEK293 derivative, clone S-9
T1 sequence (Q8TE23 20-839): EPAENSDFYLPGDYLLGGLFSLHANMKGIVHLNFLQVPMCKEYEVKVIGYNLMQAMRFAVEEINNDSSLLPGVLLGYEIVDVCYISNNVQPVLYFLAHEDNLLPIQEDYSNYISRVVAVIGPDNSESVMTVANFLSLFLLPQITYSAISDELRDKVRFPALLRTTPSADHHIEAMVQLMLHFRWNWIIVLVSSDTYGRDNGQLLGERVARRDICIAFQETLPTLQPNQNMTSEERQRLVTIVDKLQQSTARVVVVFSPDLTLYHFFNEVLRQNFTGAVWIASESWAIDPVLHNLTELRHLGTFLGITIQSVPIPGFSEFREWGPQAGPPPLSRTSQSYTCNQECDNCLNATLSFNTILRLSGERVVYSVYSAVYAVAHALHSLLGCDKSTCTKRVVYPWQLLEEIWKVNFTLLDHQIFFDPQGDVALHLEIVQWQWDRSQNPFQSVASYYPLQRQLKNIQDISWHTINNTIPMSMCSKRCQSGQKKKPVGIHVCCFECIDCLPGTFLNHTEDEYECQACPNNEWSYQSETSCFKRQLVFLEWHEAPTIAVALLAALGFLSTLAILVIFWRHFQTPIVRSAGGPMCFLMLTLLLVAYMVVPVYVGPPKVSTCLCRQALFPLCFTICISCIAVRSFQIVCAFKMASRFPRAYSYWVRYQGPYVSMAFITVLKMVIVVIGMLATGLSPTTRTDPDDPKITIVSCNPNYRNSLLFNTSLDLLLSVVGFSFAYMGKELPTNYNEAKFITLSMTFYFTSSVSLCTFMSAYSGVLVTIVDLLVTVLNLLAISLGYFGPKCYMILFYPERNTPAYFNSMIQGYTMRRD
T1 sequence (Q7RTX0 21-852): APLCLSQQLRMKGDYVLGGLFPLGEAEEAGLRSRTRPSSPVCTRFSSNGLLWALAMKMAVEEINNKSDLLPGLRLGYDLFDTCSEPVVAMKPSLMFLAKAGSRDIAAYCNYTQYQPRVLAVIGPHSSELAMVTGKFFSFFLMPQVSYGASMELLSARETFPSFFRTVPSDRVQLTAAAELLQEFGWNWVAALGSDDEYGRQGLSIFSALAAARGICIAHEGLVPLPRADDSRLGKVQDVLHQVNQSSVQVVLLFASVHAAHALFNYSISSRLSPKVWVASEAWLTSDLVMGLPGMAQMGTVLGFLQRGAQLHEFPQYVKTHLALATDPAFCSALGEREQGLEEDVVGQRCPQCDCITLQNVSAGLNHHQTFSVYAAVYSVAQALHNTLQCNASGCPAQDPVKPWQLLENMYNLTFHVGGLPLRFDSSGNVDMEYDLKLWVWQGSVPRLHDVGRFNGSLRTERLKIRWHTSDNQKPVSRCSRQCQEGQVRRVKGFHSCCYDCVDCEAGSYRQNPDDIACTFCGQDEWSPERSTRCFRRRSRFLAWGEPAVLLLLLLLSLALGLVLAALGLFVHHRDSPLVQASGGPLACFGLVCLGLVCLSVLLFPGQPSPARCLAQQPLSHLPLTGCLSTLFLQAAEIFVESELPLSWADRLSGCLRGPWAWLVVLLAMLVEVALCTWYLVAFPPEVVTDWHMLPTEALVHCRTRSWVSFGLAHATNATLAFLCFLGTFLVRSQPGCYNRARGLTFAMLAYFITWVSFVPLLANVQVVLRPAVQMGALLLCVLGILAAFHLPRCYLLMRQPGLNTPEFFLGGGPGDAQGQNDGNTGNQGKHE
As to the kind of experiment: In vitro hT1R2/hT1R3 sweet taste receptor activation assay (FLIPR, dose response). The test is classed as cell-based. The text has this: An HEK293 cell line derivative (see Chandrashekar, J., Mueller, K. L., Hoon, M. A., Adler, E., Feng, L., Guo, W., Zuker, C. S., Ryba, N. J.,. Cel,l 2000, 100, 703-711.) that stably expresses Gα15 and hT1R2/hT1R3 (see Li, X., Staszewski, L., Xu, H., Durick, K., Zoller, M., Adler, E. Proc Natl Acad Sci USA 2002, 99, 4692-4696, and PCT Publication No. WO 03/001876) was used to identify compounds with sweet taste enhancing properties. These references are hereby incorporated herein by reference for their methods of preparing and maintaing the cell lines discussed below, and for their methods for screeing compounds that inhibit the biological receptors.
Compounds covered in this document were initially selected based on their activity on the hT1R2/hT1R3—HEK293-Gα15 cell line (Li, et al. vide supra). Activity was determined using an automated fluorometric imaging assay on a FLIPR instrument (Fluorometric Intensity Plate Reader, Molecular Devices, Sunnyvale, Calif.) (designated FLIPR assay). Cells from one clone (designated S-9 cells) were seeded into 384-well plates (at approximately 50,000 cells per well) in a medium containing DMEM Low Glucose (Invitrogen, Carlsbad, Calif.), 10% dialyzed fetal bovine serum (Invitrogen, Carlsbad, Calif.), 100 Units/ml Penicillin G, and 100 μg/ml Streptomycin (Invitrogen, Carlsbad, Calif.) (Li, et al. vide supra) see also World Patent No. WO 03/001876 A2). S-9 cells were grown for 24 hours at 37° C. S-9 cells were then loaded with the calcium dye Fluo-3AM (Molecular Probes, Eugene, Oreg.), 4 μM in a phosphate buffered saline (D-PBS) (Invitrogen, Carlsbad, Calif.), for 1 hour at room temperature. After replacement with 25 μl D-PBS, stimulation was performed in the FLIPR instrument and at room temperature by the addition of 25 μl D-PBS supplemented with different stimuli at concentrations corresponding to twice the desired final level. Receptor activity was quantified by determining the maximal fluorescence increases (using a 480 nm excitation and 535 nm emission) after normalization to basal fluorescence intensity measured before stimulation.
For dose-responses analysis, stimuli were presented in duplicates at 10 different concentrations ranging from 60 nM to 30 μM. Activities were normalized to the response obtained with 400 mM D-fructose, a concentration that elicits maximum receptor response. EC50s were determined using a non-linear regression algorithm (using a Senomyx, Inc. software), where the Hill slope, bottom asymptotes and top asymptotes were allow to vary. Identical results were obtained when analyzing the dose-response data using commercially available software for non-linear regression analysis such as GraphPad PRISM (San Diego, Calif.).

The mark [1] stands for this setting: read-out: EC50 for activation of a hT1R2/hT1R3 sweet receptor.

Turning to `CC(C)Oc1ccc(NC(=S)NCc2cccs2)cc1` [Example 5, 1-(4-Isopropoxyphenyl)-3-(thiophen-2-ylmethyl)thiourea], the EC50 under setting [1] was determined as 120 nM.

Take `CC(C)Oc1ccc(NC(=S)NCc2ccco2)cc1` [Example 6, 1-(4-Isopropoxyphenyl)-3-(furan-2-ylmethyl)thiourea]: under setting [1], the EC50 came out at 550 nM.

Regarding `CCOc1ccc(NC(=S)NCc2ccco2)cc1` [Example 7, 1-(4-ethoxyphenyl)-3-(furan-2-ylmethyl)thiourea], the EC50 under setting [1] worked out at 1700 nM.

As for `CCOc1ccc(NC(=S)NCc2ccoc2)cc1` [Example 8, 1-(4-ethoxyphenyl)-3-(furan-3-ylmethyl)thiourea], the EC50 under setting [1] was 230 nM.

`CCC(C)Oc1ccc(NC(=S)NCc2ccco2)cc1` (stereo not shown) [Example 9, 1-(4-sec-Butoxy-phenyl)-3-furan-2-ylmethyl-thiourea]: the EC50 under setting [1] stood at 5300 nM.

On to `CC(C)c1ccc(NC(=S)NCc2ccoc2)cc1` [Example 10, 1-(furan-3-ylmethyl)-3-(4-isopropylphenyl)thiourea], for which the EC50 under setting [1] was determined as 750 nM.

For the compound `CC(C)Oc1ccc(NC(=S)NCc2ccccc2)cc1` [Example 11], the EC50 under setting [1] is 1000 nM.

For `COc1ccc(CNc2ccc(F)cc2C)cc1O` [Example 13, 5-((4-fluoro-2-methylphenylamino)methyl)-2-methoxyphenol], the EC50 under setting [1] came to 2290 nM.

For `COc1ccc(CNc2ccc(F)cc2F)cc1O` [Example 14, 5-((2,4-difluorophenylamino)methyl)-2-methoxyphenol], the EC50 under setting [1] was determined as 2100 nM.

With `COc1ccc(CNc2c(F)cc(F)cc2F)cc1O` [Example 15, 2-methoxy-5-((2,4,6-trifluorophenylamino)methyl)phenol], the EC50 under setting [1] was found to be 2320 nM.

For the compound `COc1ccc(CNc2ccccc2F)cc1O` [Example 16, 5-((2-fluorophenylamino)methyl)-2-methoxyphenol], under setting [1], the EC50 was 2410 nM.

With `COc1ccc(CNc2cc(C)ccc2C)cc1O` [Example 17, 5-((2,5-dimethylphenylamino)methyl)-2-methoxyphenol], under setting [1], the EC50 stood at 2580 nM.

Consider `CC(C)Oc1ccc(NC(=S)NCc2ccc[nH]2)cc1` [Example 19, 1-((1H-pyrrol-2-yl)methyl)-3-(4-isopropoxyphenyl)thiourea], for which the EC50 under setting [1] was determined as 25 nM.

Consider `COc1cc(OC)c(CNC(=S)Nc2ccc(OC(C)C)cc2)c(OC)c1` [Example B1], for which the EC50 (read-out: Sweet EC50) was 260 nM.

Turning to `CC(C)Oc1ccc(NC(=S)NCc2cccn2C)cc1` [Example B2], the EC50 (read-out: Sweet EC50) was 2590 nM.

Consider `CC(C)Oc1ccc(NC(=S)NCc2nccs2)cc1` [Example B3], for which the EC50 (read-out: Sweet EC50) was 1380 nM.

For the compound `CCOc1ccc(NC(=S)NCc2coc(C)c2)cc1` [Example B4], the EC50 (read-out: Sweet EC50) was determined as 1440 nM.

Regarding `CCCOc1ccc(NC(=S)NCc2ccco2)cc1` [Example B5], the EC50 (read-out: Sweet EC50) is 1510 nM.

Consider `CCc1ccc(NC(=S)NCc2ccoc2)cc1` [Example B6], for which, for the setting “read-out: Sweet EC50”, the EC50 worked out at 1880 nM.

As for `Cc1cc(CNC(=S)Nc2ccc(OC(C)C)cc2)no1` [Example B7], the EC50 (read-out: Sweet EC50) was 1890 nM.

Take `CCN(CC)c1ccc(NC(=S)NCc2ccoc2)cc1` [Example B8]: the EC50 (read-out: Sweet EC50) turned out to be 4090 nM.

With `COc1ccc(CNC(=S)NC(=O)c2ccccc2Cl)cc1` [Example B9], for the setting “read-out: Sweet EC50”, the EC50 is 4900 nM.

Take `CCOc1ccc(NC(=S)NCc2ccc[nH]2)cc1` [Example B10]: the EC50 (read-out: Sweet EC50) was 160 nM.

Turning to `CC(C)Oc1ccc(NC(=S)NCc2cccs2)cn1` [Example B11], the EC50 (read-out: Sweet EC50) stood at 220 nM.

In the case of `CC(C)Oc1ccc(NC(=S)NCc2ccc[nH]2)cn1` [Example B12], the EC50 (read-out: Sweet EC50) came to 340 nM.

As for `CCn1cccc1CNC(=S)Nc1ccc(OC(C)C)cc1` [Example B13], under “read-out: Sweet EC50”, the EC50 was 1290 nM.

Regarding `C=CCOc1ccc(NC(=S)NCc2ccc[nH]2)cc1` [Example B14], where the note is “read-out: Sweet EC50”, the EC50 was found to be 160 nM.

As for `C=COc1ccc(NC(=S)NCc2ccc[nH]2)cc1` [Example B15], the EC50 (read-out: Sweet EC50) came to 180 nM.

For the compound `CCSc1ccc(NC(=S)NCc2ccc[nH]2)cc1` [Example B16], for the setting “read-out: Sweet EC50”, the EC50 amounted to 210 nM.

As for `S=C(NCc1ccc[nH]1)Nc1ccc2c(c1)OCCO2` [Example B17], the EC50 (read-out: Sweet EC50) turned out to be 310 nM.

Take `S=C(NCc1ccc[nH]1)Nc1ccc(SC2CC2)cc1` [Example B18]: the EC50 (read-out: Sweet EC50) amounted to 410 nM.

Turning to `CSc1ccc(NC(=S)NCc2ccc[nH]2)cc1` [Example B19], the EC50 (read-out: Sweet EC50) turned out to be 430 nM.

In the case of `FC(F)(F)Oc1ccc(NC(=S)NCc2ccc[nH]2)cc1` [Example B20], the EC50 (read-out: Sweet EC50) was 590 nM.

As for `CC(C)Nc1ccc(NC(=S)NCc2ccc[nH]2)cc1` [Example B21], for the setting “read-out: Sweet EC50”, the EC50 is 630 nM.

As to `FC(F)(F)c1ccc(NC(=S)NCc2ccc[nH]2)c(Cl)c1` [Example B22], for the setting “read-out: Sweet EC50”, the EC50 amounted to 670 nM.

In the case of `S=C(NCc1ccc[nH]1)Nc1ccc2c(c1)CCC2` [Example B23], for the setting “read-out: Sweet EC50”, the EC50 stood at 790 nM.

For the compound `C=Cc1ccc(NC(=S)NCc2ccc[nH]2)cc1` [Example B24], the EC50 (read-out: Sweet EC50) came to 870 nM.

As to `CN(C)c1ccc(NC(=S)NCc2cccs2)cc1` [Example B25], the EC50 (read-out: Sweet EC50) was 1500 nM.

On to `S=C(NCc1cccs1)Nc1ccc(-n2cccn2)cc1` [Example B26], for which the EC50 (read-out: Sweet EC50) was found to be 1530 nM.

Consider `CC(C)(C)c1ccc(NC(=S)NCc2ccc[nH]2)cc1` [Example B27], for which the EC50 (read-out: Sweet EC50) stood at 1710 nM.

For the compound `CCOc1ccc(NC(=S)NCc2ccc(C)o2)cc1` [Example B28], under “read-out: Sweet EC50”, the EC50 worked out at 1910 nM.

With `COC(=O)c1ccc(NC(=S)NCc2cccs2)cc1` [Example B29], the EC50 (read-out: Sweet EC50) was 2940 nM.

As to `CC(C)Oc1ccc(NC(=S)NCc2ccno2)cc1` [Example B30], the EC50 (read-out: Sweet EC50) turned out to be 3860 nM.

For the compound `CCOc1ccc(NC(=S)NCc2sccc2C)cc1` [Example B31], for the setting “read-out: Sweet EC50”, the EC50 was found to be 4160 nM.

Regarding `COc1ccc(NC(=S)NCc2ccc[nH]2)c(C)c1` [Example B32], the EC50 (read-out: Sweet EC50) was 5190 nM.

In the case of `CC(C)COc1ccc(NC(=S)NCc2ccc[nH]2)cc1` [Example B33], the EC50 (read-out: Sweet EC50) was 5560 nM.
